Patent publication US11572344B2, “Cyanoaryl-aniline compounds for treatment of dermal disorders” (NFlection Therapeutics, Inc., priority 2018, dated 2023)

Key:
MEK1 = MEK1 (Homo sapiens (Human), UniProt Q02750); assay: MEK Inhibition Assay-1 (33P-ATP, P81 filter-binding); details: assay of Example 38; read-out: Assay 1: biochemical MEK IC50
Procedure: The following procedure can be used to measure biochemical activity. MEK1 inhibitory activity of compounds were tested using the following procedure. […] Nat Biotechnol. 2011, 29(11), 1039-45.
• Reaction buffer: 20 mM Hepes (pH 7.5), 10 mM MgCl2, 1 mM EGTA, 0.02% Brij35, 0.02 mg/mL BSA, 0.1 mM Na3VO4, 2 mM DTT, 1% DMSO • Enzyme: MEK1, Invitrogen cat #PV3303 • N-terminal His-tagged recombinant human full length protein, expressed in insect cells. Activated in vitro by RAF1. MW=49.2 kDa, GenBank Accession No. NP_002746. • Substrate: 5 μM ERK2 (K52R), • Kinase-dead mutant, (GenBank Accession No. NM_0011949), aa2-358 with N-terminal His6 tag, MW=43.63 kDa, expressed in E. coli.
The substrate was prepared in freshly prepared Reaction Buffer. The kinase was delivered into the substrate solution and gently mixed. Test compounds were delivered in 100% DMSO into the kinase reaction mixture by Acoustic technology (Echo550; nanolitter range), and incubated for 20 min at room temperature. ^33P-ATP was delivered into the reaction mixture to initiate the reaction. The reaction mixture was incubated for 2 hours at room temperature. Kinase activity was detected by P81 filter-binding method.
Assay 1 is the biochemical MEK IC50 (nM) assay as described in Example 38.

HCT116 cells = assay: HCT116 (Kras) GI50 cell-based assay (Cell Titer-Glo); details: Homo sapiens, HCT-116, 72 hours, read-out: Assay 3: HCT116 (Kras) GI50
Procedure: Alternatively, the following procedure can be used to measure cell-based activity. Test compounds were dissolved in DMSO in 10 mM stock. Cell Titer-Glo® 2.0 Luminescent cell viability assay reagent was purchased from Promega (Madison, Wis.). A375 and HCT116 cell lines were purchased from American Type Culture Collection (Manassas, Va.). For A375 cells, cell culture media was DMEM+10% FBS. For HCT116 cells, cell culture media was McCoy's 5A+10% FBS. All media were supplemented with 100 μg/mL of penicillin, and 100 μg/mL of streptomycin. Cultures were maintained at 37° C. in a humidified atmosphere of 5% CO2 and 95% air.
Test compounds were diluted in DMSO solution with 10-dose and 3-fold dilutions in a source plate starting at 10 mM. 25 nL of each test compound was delivered from the source plate to each well of the 384-well cell culture plates (T=Final) by Echo 550. 25 μL of culture medium containing 2000 of A375 or HCT116 cells was added to each of the wells in duplicates of the cell culture plates (T=0 and T=Final). 25 μL of Cell Titer Glo 2.0 reagent was added to each well of cell culture plate (T=0). The contents were mixed on an orbital shaker for 2 min and incubated at room temperature for 15 min to stabilize luminescent signal. Luminescence was recorded by Envision 2104 Multilabel Reader (PerkinElmer, Santa Clara, Calif.). The number of viable cells in culture was determined based on quantitation of the ATP present in each culture well. The cells in cell culture plate (T=Final) were incubated with the compounds at 37° C., 5% CO2 for 72 hours. 25 μL of Cell Titer Glo 2.0 reagent was added to each well. The contents were mixed on an orbital shaker for 2 min and incubated at room temperature for 15 min to stabilize luminescent signal. Luminescence was recorded by Envision 2104 Multilabel Reader (PerkinElmer, Santa Clara, Calif.). The number of viable cells in culture was determined based on quantitation of the ATP present in each culture well. The GI50 curves were plotted using the GraphPad Prism 4 program based on a sigmoidal dose-response equation Y=Bottom+(Top-Bottom)/(1+10^((Log EC50−X)*HillSlope)). All parameters in the equation were calculated by GraphPad Prism 4 program. […] Accordingly, GI50 is the value of 10^X, where X was calculated by the Curve Fitting Equation when Y=50 using Excel.
Assay 3 is the HCT116 (Kras) GI50 (nM) assay as described in Example 41.

[1] = Liver S9 half-life stability assay; format: in vitro ADME; details: human, liver S9 fraction, pH 7.4; 1 μM test compound, 2 mg/mL liver protein, 1 mM NADPH; read-out: Assay 4: liver S9 half-life
Procedure: Compounds can be assessed for metabolic stability in human skin by assessing their rate of disappearance from human S9 skin fraction. Similarly, compounds can be assessed for metabolic stability in human liver by assessing their rate of disappearance from human S9 liver fraction. The protocol below is used to assess the difference between skin and hepatic metabolism.
The assay was carried out in 96-well microtiter plates at 37° C. Reaction mixtures (25 μL) contained a final concentration of 1 μM test compound, 2 mg/mL liver or skin protein, and 1 mM NADPH in buffer (100 mM potassium phosphate, pH 7.4 buffer with 1 mM EDTA, 3 mM MgCl2). At each of the time points (0, 15, 30, and 60 minutes), 150 μL of quench solution (100% acetonitrile with 0.1% formic acid) with internal standard was transferred to each well. Besides the zero minute controls, mixtures containing the same components except the NADPH were also prepared as the negative control. Verapamil or testosterone was included as a positive control to verify assay performance. Plates were sealed and centrifuged at 4° C. for 15 minutes at 4000 rpm. The supernatant was transferred to fresh plates for LC/MS/MS analysis.
All samples were analyzed on LC/MS/MS using an AB Sciex API 4000 instrument, coupled to a Shimadzu LC-20AD LC Pump system. Analytical samples were separated using a Waters Atlantis T3 dC18 reverse phase HPLC column (20 mm×2.1 mm) at a flow rate of 0.5 mL/min. The mobile phase consisted of 0.1% formic acid in water (solvent A) and 0.1% formic acid in 100% acetonitrile (solvent B).
The extent of metabolism was calculated as the disappearance of the test compound, compared to the 0-min control reaction incubations. Initial rates were calculated for the compound concentration and used to determine t1/2 values and subsequently, the intrinsic clearance, CLint=(0.693) (1/t1/2 (min)) (mL incubation/mg of S9 protein).
Assay 4 is the liver S9 half-life stability assay as described in Example 42. A4 indicates a half life of greater than 50 min and less than or equal to 200 min and B4 indicates a half life of less than or equal to 50 minutes.

Chain of MEK1 (Q02750 whole entry): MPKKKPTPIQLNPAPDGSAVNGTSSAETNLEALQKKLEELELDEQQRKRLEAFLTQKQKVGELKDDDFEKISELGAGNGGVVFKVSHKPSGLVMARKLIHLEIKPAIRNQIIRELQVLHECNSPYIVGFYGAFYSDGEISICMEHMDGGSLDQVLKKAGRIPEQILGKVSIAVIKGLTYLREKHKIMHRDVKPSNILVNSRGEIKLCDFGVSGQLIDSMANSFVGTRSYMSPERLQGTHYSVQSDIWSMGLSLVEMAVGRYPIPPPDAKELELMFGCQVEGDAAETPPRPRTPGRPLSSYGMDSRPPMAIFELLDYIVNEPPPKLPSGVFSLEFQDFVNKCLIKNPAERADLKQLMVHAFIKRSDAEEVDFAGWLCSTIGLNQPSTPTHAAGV

Work on `N#Cc1ccc(C(=O)NOCCO)c(Nc2ccc(I)cc2F)c1F` [Compound 1.030, 4-cyano-3-fluoro-2-((2-fluoro-4-iodophenyl)amino)-N-(2-hydroxyethoxy) benzamide] yielded an IC50 (MEK1) of no more than 0.15 µM, a GI50 (HCT116 cells) of no more than 0.75 µM and a half-life at 1 μM [1] of 50 to 200 min.

In the case of `N#Cc1ccc(C(=O)NOCC2CC2)c(Nc2ccc(I)cc2F)c1F` [Compound 1.031], the IC50 (MEK1) is reported as no more than 0.15 µM, the GI50 (HCT116 cells) is reported as 0.75 to 2 µM and the half-life at 1 μM [1] is reported as no more than 50 min.

With `N#Cc1ccc(C(=O)NOCCO)c(Nc2ccc(I)cc2F)c1` [Compound 1.010] the IC50 (MEK1) was no more than 0.15 µM, the GI50 (HCT116 cells) was no more than 0.75 µM and the half-life at 1 μM [1] was 50 to 200 min.
